Source: BindingDB's records for doi:10.1016/s0006-291x(02)03054-1 (Pharmacia, 2003)

Molecular target: FMRFamide-like neuropeptides 14 (Ascaris)

Ki: 10.5 nM
Compound: Nc1nc2c(ncn2C2OC(COP(=O)(O)OP(=O)(O)OP(=O)(O)O)C(O)C2O)c(=O)[nH]1 (stereo unspecified) [CAS_6830]
